Laboratory results: PMC3946503, “Impact of the Smoothened Inhibitor, IPI-926, on Smoothened Ciliary Localization and Hedgehog Pathway Activity” (PLoS ONE, 2014)

Target: T1, Smoothened (Smo) (Homo sapiens, UniProt Q99835)
T1 construct: wild-type human Smo overexpressed in C3H10T1/2 cells
Assay: BODIPY-cyclopamine competition binding on Smo-expressing cells, flow cytometry
Type: cell-based

T1 sequence (Q99835 28-787): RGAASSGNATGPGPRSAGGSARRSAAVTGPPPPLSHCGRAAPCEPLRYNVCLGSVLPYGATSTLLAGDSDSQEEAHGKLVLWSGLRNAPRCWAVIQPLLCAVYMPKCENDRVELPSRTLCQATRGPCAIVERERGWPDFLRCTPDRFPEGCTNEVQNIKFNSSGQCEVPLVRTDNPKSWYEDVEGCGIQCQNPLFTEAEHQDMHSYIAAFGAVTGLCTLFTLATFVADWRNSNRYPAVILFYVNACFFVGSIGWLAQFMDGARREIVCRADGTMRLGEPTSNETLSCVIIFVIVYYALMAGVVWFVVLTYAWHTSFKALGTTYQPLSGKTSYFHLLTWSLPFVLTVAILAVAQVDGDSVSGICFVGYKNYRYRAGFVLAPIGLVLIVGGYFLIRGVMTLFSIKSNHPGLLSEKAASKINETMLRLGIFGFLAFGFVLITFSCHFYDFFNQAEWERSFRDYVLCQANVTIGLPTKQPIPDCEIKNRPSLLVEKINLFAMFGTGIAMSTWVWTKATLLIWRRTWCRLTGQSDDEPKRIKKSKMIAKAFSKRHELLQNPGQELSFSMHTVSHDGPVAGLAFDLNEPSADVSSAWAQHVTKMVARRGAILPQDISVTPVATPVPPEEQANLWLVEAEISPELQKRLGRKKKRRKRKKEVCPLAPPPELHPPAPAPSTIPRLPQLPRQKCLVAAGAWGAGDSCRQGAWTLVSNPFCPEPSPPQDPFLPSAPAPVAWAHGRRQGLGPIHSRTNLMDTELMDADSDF

`CC1=C2C[C@H]3[C@@H](CC[C@@H]4C[C@H](NS(C)(=O)=O)CC[C@@]43C)[C@@H]2CC[C@@]2(C1)O[C@@H]1C[C@H](C)CN[C@H]1[C@H]2C` [IPI-926] showed an EC50 of 1 nM.
